Literature values, collected in patent publication US20020048551A1, “Delivery of biologically active material in a liposomal formulation for administration into the mouth” (priority 1999, published 2002).

Details: tablet absorbed through the buccal mucosa

Which “androgenic activity relative to oral tablets” value does the source give for C[C@]12CCC(=O)C=C1CC[C@@H]1[C@@H]2CC[C@@]2(C)[C@H]1CC[C@]2(C)O [methyltestosterone] here?
The value was “twice”.
